The results in this text go back to patent US9522177B2, “Antimicrobial and immunostimulatory system comprising an oxidoreductase enzyme” (Institute of Technology Sligo, priority 2006, dated 2016).

For data set [1], the system named is clinical isolates of Mastitis causing Staphylococcus aureus. Kind of data set: Inhibition assay (3 day repeats), mastitis isolates. Format: cell-based. Particulars: for sensitivity of clinical isolate number 15: Mastitis causing Staphylococcus aureus isolate number 15, FIG. 11b. The method, then: 22 isolates of Staphylococcus aureus from clinical mastitis obtained from Sligo regional Veterinary Laboratories are grown on nutrient agar or in nutrient broth for 24 hrs at 37° C.
Agar plates are inoculated by swabbing overnight culture onto the plate surface. Plates are allowed to stand at room temperature for 15 minutes before use. Wells 8.2 mm diameter are bored into the surface of the agar. One hundred and eighty μl of sample is placed into each well. The samples diffuse into the agar around the well and are assayed for an ability to produce a zone of inhibition. Plates are incubated for 24, 48 or 72 hrs and zones of inhibition are measured using an Autodata automatic zone reader. The diameter of zones, including the diameter of the well (8.2 mm), is recorded.

A further data set relates to L929 cells. In words: ISO 10993-5 agar overlay cytotoxicity (neutral red). To be noted: positive control, 24 hrs. As for the experimental part:
ISO 10993, agar overlay tests for cytotoxicity: in vitro method is also used, employing L929 cells (mouse fibroblasts ECACC 85011425). In brief; a confluent monolayer of cells is incubated, this is then covered with a layer fresh medium (EMEM, 2 mM L-Glutamine, 5% FBS, 2% Penicillin-Streptomycin) containing 1.5 g/l of soft agar and allowed to solidify. One tenth of the surface is covered with test materials (previously described) and incubated for 24 hrs. Post incubation the test material is carefully removed and a vital stain (neutral red) in fresh media added. After incubation this is removed, the cells washed and then the dye extracted from the cells and quantified spectrophotometrically for cell viability.
Percent toxicity was calculated according to the formula: % Toxicity=1−(OD average of test material wells/average OD of corresponding control wells (sodium azide added))×100. Included in the assay are a 50% concentration of A^3IS, a range of concentrations of commercial silver containing gel and commercial zinc containing gel product, compared to sodium azide (positive control). […] For the agar overlay toxicity assay the amount of test materials used was similar to that used for the initial direct contact assays of 100 mg per well however the contact time was extended to 24 hrs.

On to `O=C(N[C@H](CO)[C@H](O)c1ccc([N+](=O)[O-])cc1)C(Cl)Cl` [Chloramphenicol], for which the “sensitivity of clinical isolate number 15” value (“sensitivity” for short) in data set [1] is reported as “only mild sensitivity”. As for `[H]/N=C(/N)N[C@H]1[C@H](O)[C@@H](O)[C@H](O[C@@H]2O[C@@H](C)[C@](O)(C=O)[C@H]2O[C@@H]2O[C@@H](CO)[C@H](O)[C@@H](O)[C@@H]2NC)[C@@H](N/C(N)=N\[H])[C@@H]1O` [Streptomycin], the “sensitivity” value in data set [1] was “resistant”. With `CN[C@H](CC(C)C)C(=O)N[C@H]1C(=O)N[C@@H](CC(N)=O)C(=O)N[C@H]2C(=O)N[C@H]3C(=O)N[C@H](C(=O)N[C@H](C(=O)O)c4cc(O)cc(O)c4-c4cc3ccc4O)[C@H](O)c3ccc(c(Cl)c3)Oc3cc2cc(c3O[C@@H]2O[C@H](CO)[C@@H](O)[C@H](O)[C@H]2O[C@H]2C[C@](C)(N)[C@H](O)[C@H](C)O2)Oc2ccc(cc2Cl)[C@H]1O` [Vancomycin], in data set [1], the “sensitivity” value was “resistant”. For the compound `[N-]=[N+]=[N-]` [sodium azide], the “% Toxicity” value in the data set with L929 cells amounted to 100%. Regarding Nisin [2% Nisin], the “resistant colonies in zone of inhibition assays” value in data set [1] (FIG. 11e) is recorded as “resistant colony within the zone of inhibition”.
